Experimental data reported in PMC11351612, “Heteronuclear Complexes with Promising Anticancer Activity against Colon Cancer” (Biomedicines, 2024).

Experiments:
Caco-2/TC7 cells = assay: MTT cell proliferation assay, Caco-2/TC7; assay type: cell-based, human; details: 72 h, mean ± SE of at least three determinations
Procedure: Cell culture. Human colon cancer Caco-2 cells (PD7 and TC7 clones) were kindly provided by Dr. Edith Brot-Laroche (Université Pierre et Marie Curie-Paris 6, UMR S 872, Les Cordeliers, Lyon, France) and grown in Dulbecco’s Modified Eagles medium (DMEM) (Gibco Invitrogen, Paisley, UK) supplemented with 20% foetal bovine serum (FBS), 1% non-essential amino acids, 1% streptomycin (1000 μg/mL), 1% penicillin (1000 μg/mL), and 1% amphotericin (250 U/mL). Caco-2 cells were maintained at 37 °C in a humidified atmosphere at 5% CO2.
Cell proliferation assay. Cell proliferation was measured using the 3-(4,5-dimethyl-2-thiazoyl)-2,5-diphenyltetrazolium bromide (MTT) assay, as previously described. Caco-2/TC7 cells were seeded in a 96-well plate at a density of 4000 cells/well and grown for 24 h before being treated with each complex or DMSO (used as control). After 72 h of incubation with the complexes, 10 μL of MTT (5 mg/mL) were added and incubation was continued at 37 °C for 3 h. Inversion removed the medium and 100 μL of DMSO were added to each well. Absorbance at 560 nm, proportional to many living cells, was measured by spectrophotometry (SPECTROstar Nano, BMG LABTECH, Ortenberg, Germany) and converted into a percentage (%) of growth inhibition.
The antiproliferative effects of the mononuclear and heteropolinuclear complexes were tested on two different Caco-2 cancer cell lines (PD7 and […]). […] Caco-2 cells of both PD7 and TC7 clones were exposed to increasing concentrations of the assayed compounds through dose–response/cell viability analysis. The results in terms of the IC50 parameter (Table 4) were obtained by using the MTT protocol.

[1] = Distribution coefficient (logP7.4), n-octanol-water shake-flask; assay type: physicochemical; details: n-octanol / buffered saline pH 7.4, shake-flask
Procedure: Distribution coefficient (logP7.4). The n-octanol-water coefficients of the complexes were determined using a shake-flask method, as previously reported. Briefly, buffered-saline distilled water (100 mL, phosphate buffer [PO4^3−] = 10 mM, [NaCl] = 0.15 M, pH 7.4) and n-octanol (100 mL) were shaken together for 72 h to allow for saturation of both phases. Approximately 1 mg of the complexes was dissolved in 5 mL of the aqueous phase and 5 mL of the organic phase was added, mixing them for 10 min. The resulting emulsion was centrifuged to separate the phases. The concentration of the compounds in each phase was determined using UV-vis absorbance spectroscopy. The logP7.4 was defined as log{[compound(organic)]/[compound(aqueous)]}.

[2] = target: T1, bovine serum albumin (BSA) (Bos taurus, UniProt P02769); assay: BSA UV-vis absorption superposition (static vs dynamic quenching); assay type: binding; details: compound 24 μM, absorption spectra superposition
T1 construct: purchased Sigma Aldrich (St. Louis, MO, USA)
Procedure: Furthermore, examination of the absorption spectra of the fluorophores can be used as a means of characterising static and dynamic quenching. Given the premise that static quenching entails complex formation, alterations in the absorption spectra of BSA are to be anticipated. Conversely, since dynamic quenching only affects the excited states of BSA, its absorption spectra would remain unaltered. The absorption spectra of BSA were recorded in the absence and presence of each compound at a concentration of 24 μM, as well as the absorption spectrum of the compound at the same concentration. A mathematical superposition of the spectrum of BSA and the spectrum of the compounds was calculated.

[3] = Solution stability by UV-vis in PBS; assay type: physicochemical; details: PBS pH 7.4, 37 °C; for Stability under physiological conditions (UV-vis spectrum over time): 24 h
Procedure: Solution chemistry. The stability of the dinuclear derivatives was analysed by absorption UV-vis spectroscopy. UV-vis absorption spectra of the complexes were recorded on a Thermo Scientific spectrophotometer. Solutions of the complexes (5 × 10^−5 M) in PBS (pH = 7.4) were prepared from 20 mM DMSO stock solutions and thereafter monitored over 24 h at 37 °C, measuring the electronic spectra.
The solution stability of the new heterometallic compounds was determined under physiological conditions. To simulate conditions similar to those in cell culture and the body, the compounds were dissolved in a phosphate-buffered saline solution (PBS) with a pH of 7.4 and then incubated at 37 °C. The UV spectra of each complex were recorded at different time intervals (Figure S14). Qualitative determination of the stability of the compounds under such conditions was achieved by comparing the spectra obtained at each time point.

T1 sequence (P02769 25-607): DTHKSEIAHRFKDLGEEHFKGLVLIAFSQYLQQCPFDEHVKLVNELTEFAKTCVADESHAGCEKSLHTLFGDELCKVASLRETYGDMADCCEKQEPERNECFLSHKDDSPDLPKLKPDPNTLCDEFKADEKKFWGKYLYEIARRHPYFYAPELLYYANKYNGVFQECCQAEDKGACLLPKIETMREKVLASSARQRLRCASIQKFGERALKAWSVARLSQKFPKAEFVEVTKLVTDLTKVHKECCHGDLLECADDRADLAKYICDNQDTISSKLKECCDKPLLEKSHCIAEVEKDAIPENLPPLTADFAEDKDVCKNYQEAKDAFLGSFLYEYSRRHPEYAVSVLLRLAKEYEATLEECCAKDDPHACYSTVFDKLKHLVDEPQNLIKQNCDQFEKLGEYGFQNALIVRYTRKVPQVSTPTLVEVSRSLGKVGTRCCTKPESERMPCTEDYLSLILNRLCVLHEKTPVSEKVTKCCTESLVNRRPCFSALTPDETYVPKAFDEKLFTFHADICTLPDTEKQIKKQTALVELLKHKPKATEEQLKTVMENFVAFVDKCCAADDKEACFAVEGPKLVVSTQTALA

Row | Substance | IC50 (Caco-2/TC7 cells) | logP [1] | Quenching / binding mode with BSA [2] | Solubility in PBS (qualitative) [3] | Stability under physiological conditions (UV-vis spectrum over time) [3]
1 | [Cu{Au(Spy)(PTA)}2]PF6 [compound 1] | 0.13 ± 0.07 µM | 0.84 | dynamic binding | reduced solubility in PBS | notable stability
2 | [Zn{Au(PTA)(Spy)}2](NO3)2 [compound 2] | 1.94 ± 0.81 µM | 0.47 | static binding mode may be implied | highly soluble | remained unaltered for a period of 24 h
